# Laboratory results taken from patent publication US7968573B2, “Hydrazide compound and pesticidal use of the same” (Sumitomo Chemical Company, Limited, priority 2008, dated 2011).
# Tested on: cotton aphids
# Experiment: Test Example 2: spray on cucumber infested with cotton aphids
# Assay type: in vivo, Aphis gossypii
# Conditions: 500 ppm spray solution, 20 ml/cup on cucumber with about 30 cotton aphids; counted six days after spraying
# Procedure: At the same time, cucumber was planted in a polyethylene cup, and was grown until the first true leaf was developed. About 30 cotton aphids were put on the cucumber. One day after, the test spray solution as described above was sprayed in an amount of 20 ml/cup on the cucumber. Six days after spraying, the number of cotton aphids was counted, and a controlling value was calculated by the following equation: Controlling value(%)={1−(Cb×Tai)/(Cai×Tb)}×100 wherein, Cb: the number of insects in a non-treated section before treatment Cai: the number of insects in a non-treated section on observation Tb: the number of insects in a treated-section before treatment Tai: the number of insects in a treated-section on observation. Furthermore, the same way as Test Example 2, test spray solution of the comparative compound of the formula: […]
row,SMILES,Controlling value
1,COC(=O)CNC(=O)c1cccc(C)c1NC(=O)c1cc(C(F)(F)F)nn1-c1ncccc1Cl,less than 30%

# Tested on: silver leaf whitefly
# Experiment: Test Example 6: spray on cabbage with hatched larvae of silver leaf whitefly
# Assay type: in vivo
# Conditions: Bemisia argentifolii, 168 h; 500 ppm spray solution, 20 ml/cup on cabbage with hatched larvae of silver leaf whitefly; counted seven days after spraying; read-out: Controlling value
# Procedure: At the same time, cabbage was planted in a polyethylene cup, and grown until the first true leaf was developed. All leaves excluding the first true leaf were cut off. On the first true leaf, imagoes of silver leaf whitefly were released and allowed to lay eggs for about 24 hours. The cabbage was retained in a greenhouse for 8 days. When larvae hatched from the laid eggs, the test spray solution as described above was sprayed in an amount of 20 ml/cup to the cabbage. Seven days after spraying, the number of larvae surviving on the cabbage was counted, and a controlling value was calculated by the following equation: Controlling value(%)={1−(Cb×Tai)/(Cai×Tb)}×100 wherein, Cb: the number of worms in a non-treated section before treatment Cai: the number of worms in a non-treated section on observation Tb: the number of worms in a treated-section before treatment Tai: the number of worms in a treated-section on observation.
row,SMILES,pest or weed control at 500 ppm [%]
1,CCOC(=O)NNC(=O)c1cccc(C)c1NC(=O)c1cc(C(F)(F)F)nn1-c1ncccc1Cl [(32)],≥ 90
2,COC(=O)N(C)N(C)C(=O)c1cc(C#N)cc(C)c1NC(=O)c1cc(Br)nn1-c1ncccc1Cl [(144)],≥ 90
3,COC(=O)NNC(=O)c1cc(Cl)cc(C)c1NC(=O)c1cc(Br)c(Br)n1-c1ncccc1Cl [(127)],≥ 90
4,COC(=O)NNC(=O)c1cc(Cl)cc(C)c1NC(=O)c1cc(Cl)cn1-c1ncccc1Cl [(153)],≥ 90
5,COC(=O)N(C)N(C)C(=O)c1cc(Cl)cc(C)c1NC(=O)c1cc(Br)nn1-c1ncccc1Cl [(119)],≥ 90
6,COC(=O)N(NC(=O)c1cc(Cl)cc(C)c1NC(=O)c1cc(Br)cn1-c1ncccc1Cl)C(=O)OC [(158)],≥ 90
7,Cc1cc(Cl)cc(C(=O)NNC(=O)OCCF)c1NC(=O)c1cc(Br)nn1-c1ncccc1Cl [(221)],≥ 90
8,COC(=O)NNC(=O)c1cc(Cl)cc(C)c1NC(=O)c1cc(C(F)(F)F)nn1-c1ncccc1Cl [(5)],≥ 90
9,COC(=O)NNC(=O)c1cc(Cl)cc(C)c1NC(=O)c1ccc(Cl)n1-c1ncccc1Cl [(129)],≥ 90
10,C#CCOC(=O)NNC(=O)c1cc(Br)cc(Br)c1NC(=O)c1cc(Br)cn1-c1ncccc1Cl [(223)],≥ 90
11,COC(=O)N(C)NC(=O)c1cc(Br)cc(Br)c1NC(=O)c1cc(Br)cn1-c1ncccc1Cl [(209)],≥ 90
12,COC(=O)N(C)NC(=O)c1cc(Cl)cc(C)c1NC(=O)c1cc(Br)nn1-c1ncccc1Cl [(114)],≥ 90
13,COC(=O)NNC(=O)c1cc(Cl)cc(C)c1NC(=O)c1cc(Br)nn1-c1ncccc1Cl [(34)],≥ 90
14,COC(=O)NNC(=O)c1cc(Cl)cc(C)c1NC(=O)c1cc(Br)cn1-c1ncccc1Cl [(93)],≥ 90
15,COC(=O)NNC(=O)c1cc(Cl)cc(Br)c1NC(=O)c1cc(C(F)(F)F)nn1-c1ncccc1Cl [(59)],≥ 90
16,COC(=O)NNC(=O)c1cc(Br)cc(Br)c1NC(=O)c1ccc(S(C)(=O)=O)n1-c1ncccc1Cl [(226)],≥ 90
17,COC(=O)NNC(=O)c1cc(Cl)cc(Cl)c1NC(=O)c1cc(C(F)(F)F)nn1-c1ncccc1Cl [(56)],≥ 90
18,COC(=O)N(C)N(C)C(=O)c1cc(Br)cc(Br)c1NC(=O)c1cc(Br)nn1-c1ncccc1Cl [(204)],≥ 90
19,COC(=O)N(C)N(C)C(=O)c1cc(Cl)cc(Cl)c1NC(=O)c1cc(Br)nn1-c1ncccc1Cl [(231)],≥ 90
20,COC(=O)N(NC(=O)c1cc(Cl)cc(Br)c1NC(=O)c1cc(Br)nn1-c1ncccc1Cl)C(=O)OC [(107)],≥ 90
21,COCCOC(=O)N(NC(=O)c1cc(Cl)cc(C)c1NC(=O)c1cc(Br)nn1-c1ncccc1Cl)C(=O)OC [(215)],≥ 90
22,COC(=O)N(NC(=O)c1cc(Br)cc(Br)c1NC(=O)c1cc(Br)cn1-c1ncccc1Cl)C(=O)OC [(201)],≥ 90

# Tested on: Frankliniella occidentalis
# Experiment: Test Example 5: sprayed cucumber leaf, larvae of Frankliniella occidentalis
# Assay type: in vivo
# Conditions: 168 h; 500 ppm spray solution, 20 ml/cup on cucumber, cut first true leaf; 20 larvae of Frankliniella occidentalis; counted seven days after spraying; read-out: Controlling value
# Procedure: At the same time, cucumber was planted in a polyethylene cup, and was grown until the first true leaf was developed. The test spray solution as described above was sprayed in an amount of 20 ml/cup on the cucumber. After the drug solution sprayed on the cucumber was dried, the first true leaf was cut and then placed on a filter paper (diameter: 70 mm) containing water in a polyethylene cup (diameter: 110 mm). On the cucumber leaf, 20 larvae of Frankliniella occidentalis were released, and the polyethylene cup was capped. Seven days after spraying, the number of insects surviving on the cucumber leaf was counted, and a controlling value was calculated by the following equation: Controlling value(%)={1−(Cb×Tai)/(Cai×Tb)}×100 wherein, Cb: the number of insects in a non-treated section before treatment Cai: the number of insects in a non-treated section on observation Tb: the number of insects in a treated-section before treatment Tai: the number of insects in a treated-section on observation.
row,SMILES,pest or weed control at 500 ppm [%]
1,CC(=O)NNC(=O)c1cc(Cl)cc(C)c1NC(=O)c1cc(C(F)(F)F)nn1-c1ncccc1Cl [(27)],≥ 90
2,COC(=O)NNC(=O)c1cc(Cl)cc(C)c1NC(=O)c1cc(Br)cn1-c1ccncc1Cl [(187)],≥ 90
3,COC(=O)NNC(=O)c1cc([N+](=O)[O-])cc(C)c1NC(=O)c1cc(Br)nn1-c1ncccc1Cl [(183)],≥ 90
4,COC(=O)NNC(=O)c1c(Cl)ccc(C)c1NC(=O)c1cc(Br)nn1-c1ncccc1Cl [(88)],≥ 90
5,CN(C)C(=O)NN(C)C(=O)c1cc(Br)cc(Br)c1NC(=O)c1cc(Br)cn1-c1ncccc1Cl [(206)],≥ 90
6,COC(=O)N(NC(=O)c1cc(Cl)cc(C)c1NC(=O)c1cc(Cl)cn1-c1ncccc1Cl)C(=O)OC [(159)],≥ 90
7,COC(=O)NNC(=O)c1cc(Br)cc(Br)c1NC(=O)c1ccc(SC)n1-c1ncccc1Cl [(227)],≥ 90
8,Cc1cc(Cl)cc(C(=O)NNC=O)c1NC(=O)c1cc(C(F)(F)F)nn1-c1ncccc1Cl [(17)],≥ 90
9,COC(=O)NNC(=O)c1cc2ccccc2c(Br)c1NC(=O)c1cc(Br)nn1-c1ncccc1Cl [(140)],≥ 90
10,COC(=O)NNC(=O)c1cccc(C(F)(F)F)c1NC(=O)c1cc(Br)nn1-c1ncccc1Cl [(81)],≥ 90
11,COC(=O)NNC(=O)c1cc(Cl)cc(C)c1NC(=O)c1cc(SC)nn1-c1ncccc1Cl [(99)],≥ 90
12,COC(=O)NNC(=O)c1ccc(Cl)c(C)c1NC(=O)c1cc(Br)nn1-c1ncccc1Cl [(85)],≥ 90
13,CSC(=O)NNC(=O)c1cc(Cl)cc(C)c1NC(=O)c1cc(C(F)(F)F)nn1-c1ncccc1Cl [(29)],≥ 90
14,COC(=O)NNC(=O)c1cc(Br)cc(Br)c1NC(=O)c1ccc(S(C)(=O)=O)n1-c1ncccc1Cl [(226)],≥ 90
15,COC(=O)N(NC(=O)c1cc(Cl)cc(C)c1NC(=O)c1cc(Cl)c(Cl)n1-c1ncccc1Cl)C(=O)OC [(167)],≥ 90
16,COC(=O)N(C)N(C)C(=O)c1cc(Cl)cc(Cl)c1NC(=O)c1cc(Br)nn1-c1ncccc1Cl [(231)],≥ 90
17,COC(=O)NNC(=O)c1cc(Cl)cc(I)c1NC(=O)c1cc(Br)nn1-c1ncccc1Cl [(79)],≥ 90
